# Laboratory results: the supplement of paper PMC10307832
# Key:
# Experiment in all cases: relative viability (nuclei count vs DMSO), 5 days (fraction); higher = more cells survive
# [1] = system: NCI-H1651
# Method in brief: (§1)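 After 5 days of treatment, lung cancer cells in 1536-well plates were fixed and stained in a single step (final 0.05% Triton X-100, 1% formaldehyde, 1 ug/ml Hoechst) and their nuclei counted on 4× images. Treatment had been applied by pin tool the day after seeding as one drug alone or as a fixed anchor-drug dose with five library-drug doses (not always all listed) in √10 steps. Relative viability is the nuclei count of treated wells divided by that of vehicle wells, and values are medians of duplicate plates.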
# [2] = system: HCC-15
# Method in brief: as §1
# [3] = system: BEN
# Method in brief: as §1
# [4] = system: 201T
# Method in brief: as §1
# [5] = system: NCI-H322M
# Method in brief: as §1
# [6] = system: RERF-LC-KJ
# Method in brief: as §1
# [7] = system: HARA
# Method in brief: as §1
# [8] = system: COR-L 105
# Method in brief: as §1
# [9] = system: NCI-H1437
# Method in brief: as §1
# [10] = system: NCI-H2405
# Method in brief: as §1
# [11] = system: NCI-H2085
# Method in brief: as §1
# [12] = system: LCLC-103H
# Method in brief: as §1
# [13] = system: LK-2
# Method in brief: as §1
# [14] = system: LU99A
# Method in brief: as §1
# [15] = system: LC-2-ad
# Method in brief: as §1
# [16] = system: CAL-12T
# Method in brief: as §1
# [17] = system: H3255
# Method in brief: as §1
# [18] = system: HCC-827
# Method in brief: as §1
# [19] = system: UMC-11
# Method in brief: as §1
# [20] = system: NCI-H23
# Method in brief: as §1
# [21] = system: LXF-289
# Method in brief: as §1
# [22] = system: NCI-H2228
# Method in brief: as §1
structure (smiles),measurement,setting,value
O=c1[nH]c2ccccc2n1C1CCN(CCCC(c2ccc(F)cc2)c2ccc(F)cc2)CC1 [Pimozide] + Cc1cc(Nc2cc(N3CCN(C)CC3)nc(Sc3ccc(NC(=O)C4CC4)cc3)n2)n[nH]1 [Tozasertib] (partner 0.1 µM),relative viability,[1]; first compound 0.08 µM,0.618
same,relative viability,[1]; first compound 0.253 µM,0.697
same,relative viability,[1]; first compound 0.8 µM,0.655
same,relative viability,[1]; first compound 2.53 µM,0.611
same,relative viability,[1]; first compound 8 µM,0.567
same,relative viability,[2]; first compound 0.08 µM,0.403
same,relative viability,[2]; first compound 0.253 µM,0.365
same,relative viability,[2]; first compound 0.8 µM,0.322
same,relative viability,[2]; first compound 2.53 µM,0.292
same,relative viability,[2]; first compound 8 µM,0.201
same,relative viability,[3]; first compound 0.08 µM,0.465
same,relative viability,[3]; first compound 0.253 µM,0.548
same,relative viability,[3]; first compound 0.8 µM,0.427
same,relative viability,[3]; first compound 2.53 µM,0.471
same,relative viability,[3]; first compound 8 µM,0.422
same,relative viability,[4]; first compound 0.08 µM,0.88
same,relative viability,[4]; first compound 0.253 µM,0.94
same,relative viability,[4]; first compound 0.8 µM,0.871
same,relative viability,[4]; first compound 2.53 µM,0.747
same,relative viability,[4]; first compound 8 µM,0.636
same,relative viability,[5]; first compound 0.253 µM,0.51
same,relative viability,[5]; first compound 0.8 µM,0.523
same,relative viability,[5]; first compound 2.53 µM,0.515
same,relative viability,[5]; first compound 8 µM,0.425
same,relative viability,[6]; first compound 0.08 µM,0.468
same,relative viability,[6]; first compound 0.253 µM,0.447
same,relative viability,[6]; first compound 0.8 µM,0.452
same,relative viability,[6]; first compound 2.53 µM,0.202
same,relative viability,[6]; first compound 8 µM,0.248
same,relative viability,[7]; first compound 0.253 µM,0.107
same,relative viability,[7]; first compound 0.8 µM,0.111
same,relative viability,[7]; first compound 2.53 µM,0.0907
same,relative viability,[7]; first compound 8 µM,0.123
same,relative viability,[8]; first compound 0.253 µM,0.327
same,relative viability,[8]; first compound 0.8 µM,0.367
same,relative viability,[8]; first compound 2.53 µM,0.301
same,relative viability,[8]; first compound 8 µM,0.239
same,relative viability,[9]; first compound 0.08 µM,0.397
same,relative viability,[9]; first compound 0.253 µM,0.389
same,relative viability,[9]; first compound 0.8 µM,0.35
same,relative viability,[9]; first compound 2.53 µM,0.362
same,relative viability,[9]; first compound 8 µM,0.341
same,relative viability,[10]; first compound 0.08 µM,0.754
same,relative viability,[10]; first compound 0.253 µM,0.712
same,relative viability,[10]; first compound 0.8 µM,0.683
same,relative viability,[10]; first compound 2.53 µM,0.673
same,relative viability,[10]; first compound 8 µM,0.575
same,relative viability,[11]; first compound 0.08 µM,0.793
same,relative viability,[11]; first compound 0.253 µM,0.82
same,relative viability,[11]; first compound 0.8 µM,0.704
same,relative viability,[11]; first compound 2.53 µM,0.844
same,relative viability,[11]; first compound 8 µM,0.736
same,relative viability,[12]; first compound 0.08 µM,0.353
same,relative viability,[12]; first compound 0.253 µM,0.409
same,relative viability,[12]; first compound 0.8 µM,0.361
same,relative viability,[12]; first compound 2.53 µM,0.422
same,relative viability,[12]; first compound 8 µM,0.446
same,relative viability,[13]; first compound 0.08 µM,0.173
same,relative viability,[13]; first compound 0.253 µM,0.178
same,relative viability,[13]; first compound 2.53 µM,0.167
same,relative viability,[13]; first compound 8 µM,0.171
same,relative viability,[14]; first compound 0.08 µM,0.244
same,relative viability,[14]; first compound 0.253 µM,0.277
same,relative viability,[14]; first compound 0.8 µM,0.27
same,relative viability,[14]; first compound 2.53 µM,0.304
same,relative viability,[14]; first compound 8 µM,0.256
same,relative viability,[15]; first compound 0.08 µM,0.442
same,relative viability,[15]; first compound 0.253 µM,0.455
same,relative viability,[15]; first compound 0.8 µM,0.416
same,relative viability,[15]; first compound 2.53 µM,0.385
same,relative viability,[15]; first compound 8 µM,0.35
same,relative viability,[16]; first compound 0.08 µM,0.308
same,relative viability,[16]; first compound 0.253 µM,0.312
same,relative viability,[16]; first compound 0.8 µM,0.308
same,relative viability,[16]; first compound 2.53 µM,0.318
same,relative viability,[16]; first compound 8 µM,0.427
same,relative viability,[17]; first compound 0.253 µM,0.592
same,relative viability,[17]; first compound 0.8 µM,0.47
same,relative viability,[17]; first compound 2.53 µM,0.584
same,relative viability,[17]; first compound 8 µM,0.659
same,relative viability,[18]; first compound 0.253 µM,0.387
same,relative viability,[18]; first compound 0.8 µM,0.368
same,relative viability,[18]; first compound 2.53 µM,0.385
same,relative viability,[18]; first compound 8 µM,0.405
same,relative viability,[19]; first compound 0.08 µM,0.188
same,relative viability,[19]; first compound 0.253 µM,0.201
same,relative viability,[19]; first compound 0.8 µM,0.205
same,relative viability,[19]; first compound 2.53 µM,0.205
same,relative viability,[19]; first compound 8 µM,0.205
same,relative viability,[20]; first compound 0.08 µM,0.386
same,relative viability,[20]; first compound 0.253 µM,0.396
same,relative viability,[20]; first compound 0.8 µM,0.348
same,relative viability,[20]; first compound 2.53 µM,0.336
same,relative viability,[20]; first compound 8 µM,0.314
same,relative viability,[21]; first compound 0.08 µM,0.208
same,relative viability,[21]; first compound 0.253 µM,0.167
same,relative viability,[21]; first compound 0.8 µM,0.173
same,relative viability,[21]; first compound 2.53 µM,0.14
same,relative viability,[21]; first compound 8 µM,0.126
same,relative viability,[22]; first compound 0.08 µM,0.263
same,relative viability,[22]; first compound 0.253 µM,0.262
same,relative viability,[22]; first compound 0.8 µM,0.308
same,relative viability,[22]; first compound 2.53 µM,0.172
same,relative viability,[22]; first compound 8 µM,0.148
